# According to ChEMBL document CHEMBL1287680, “C-11 diamino cryptolepine derivatives NSC748392, NSC748393, and NSC748394: anticancer profile and G-quadruplex stabilization” (Bioorg Med Chem Lett, 2010):
# Key:
# Nucleic Acid = settings: Homo sapiens
# Description: Binding affinity to human G-quadruplex DNA assessed as change in melting temperature by FRET-melting assay
# OVCAR-8 = assay: cells; settings: Homo sapiens, OVCAR-8, read-out: pGI50 (converted)
# Description: Anticancer activity against human OVCAR8 cells
# OVCAR-5 = assay: cells; settings: Homo sapiens
# Description: Anticancer activity against human OVCAR5 cells
# OVCAR-4 = assay: cells; settings: Homo sapiens
# Description: Anticancer activity against human OVCAR4 cells
# OVCAR-3 = assay: cells; settings: Homo sapiens
# Description: Anticancer activity against human OVCAR-3 cells
# SK-MEL-28 = assay: cells; settings: Homo sapiens
# Description: Anticancer activity against human SK-MEL-28 cells
# M14 = assay: cells; settings: Homo sapiens
# Description: Anticancer activity against human M14 cells
# LOX IMVI = assay: cells; settings: Homo sapiens
# Description: Anticancer activity against human LOXIMVI cells
# SNB-75 = assay: cells; settings: Homo sapiens
# Description: Anticancer activity against human SNB75 cells
# SF-539 = assay: cells; settings: Homo sapiens
# Description: Anticancer activity against human SF539 cells
# SF-295 = assay: cells; settings: Homo sapiens
# Description: Anticancer activity against human SF295 cells
# SF-268 = assay: cells; settings: Homo sapiens
# Description: Anticancer activity against human SF268 cells
# SW-620 = assay: cells; settings: Homo sapiens
# Description: Anticancer activity against human SW620 cells
# KM12 = assay: cells; settings: Homo sapiens
# Description: Anticancer activity against human KM12 cells
# HCC 2998 = assay: cells; settings: Homo sapiens
# Description: Anticancer activity against human HCC2998 cells
# COLO 205 = assay: cells; settings: Homo sapiens
# Description: Anticancer activity against human COLO205 cells
# NCI-H322M = assay: cells; settings: Homo sapiens
# Description: Anticancer activity against human NCI-H322M cells
# NCI-H23 = assay: cells; settings: Homo sapiens
# Description: Anticancer activity against human NCI-H23 cells
# EKVX = assay: cells; settings: Homo sapiens
# Description: Anticancer activity against human EKVX cells
# SR = assay: cells; settings: Homo sapiens
# Description: Anticancer activity against human SR cells
# MOLT-4 = assay: cells; settings: Homo sapiens
# Description: Anticancer activity against human MOLT4 cells
# Vero = assay: cells; settings: Chlorocebus sabaeus, 48 h
# Description: Cytotoxicity against african green monkey Vero cells after 48 hrs by MTT assay
# BT-549 = assay: cells; settings: Homo sapiens
# Description: Anticancer activity against human BT549 cells
# T47D = assay: cells; settings: Homo sapiens
# Description: Anticancer activity against human T47D cells
# MDA-MB-468 = assay: cells; settings: Homo sapiens
# Description: Anticancer activity against human MDA-MB-468 cells
# NCI/ADR-RES = assay: cells; settings: Homo sapiens
# Description: Anticancer activity against human NCI/ADR-RES cells
# MCF7 = assay: cells; settings: Homo sapiens
# Description: Anticancer activity against human MCF7 cells
# DU-145 = assay: cells; settings: Homo sapiens
# Description: Anticancer activity against human DU145 cells
# PC-3 = assay: cells; settings: Homo sapiens
# Description: Anticancer activity against human PC3 cells
# UO-31 = assay: cells; settings: Homo sapiens
# Description: Anticancer activity against human UO31 cells
# SN12C = assay: cells; settings: Homo sapiens
# Description: Anticancer activity against human SN12C cells
# RXF 393 = assay: cells; settings: Homo sapiens
# Description: Anticancer activity against human RXF393 cells
# 786-0 = assay: cells; settings: Homo sapiens
# Description: Anticancer activity against human 786-0 cells
# in vivo = settings: mouse, cancer cell lines
# Description: Toxicity in cancer cells containing hollow fiber implanted mouse
compound,measurement,setting,value
C[n+]1c2ccccc2c(Nc2ccc(N3CCCCC3)cc2)c2[nH]c3ccccc3c21.[Cl-],ΔTm,Nucleic Acid,4.2 °C
same,GI50,OVCAR-8,316 nM
same,GI50,"OVCAR-5; OVCAR-5, read-out: pGI50 (converted)",1070 nM
same,CC50,"OVCAR-5; OVCAR-5, read-out: pLC50 (converted)",5500 nM
same,TGI,"OVCAR-5; OVCAR-5, read-out: pTGI",2400 nM
same,GI50,"OVCAR-4; OVCAR-4, read-out: pGI50 (converted)",363 nM
same,CC50,"OVCAR-4; OVCAR-4, read-out: pLC50 (converted)",3980 nM
same,TGI,"OVCAR-4; OVCAR-4, read-out: pTGI",1350 nM
same,GI50,"OVCAR-3; OVCAR-3, read-out: pGI50 (converted)",224 nM
same,CC50,"OVCAR-3; OVCAR-3, read-out: pLC50 (converted)",933 nM
same,TGI,"OVCAR-3; OVCAR-3, read-out: pTGI",457 nM
same,GI50,"SK-MEL-28; SK-MEL-28, read-out: pGI50 (converted)",372 nM
same,CC50,"SK-MEL-28; SK-MEL-28, read-out: pLC50 (converted)",3470 nM
same,TGI,"SK-MEL-28; SK-MEL-28, read-out: pTGI",1150 nM
same,GI50,"M14; M14, read-out: pGI50 (converted)",389 nM
same,CC50,"M14; M14, read-out: pLC50 (converted)",4070 nM
same,TGI,"M14; M14, read-out: pTGI",1450 nM
same,GI50,LOX IMVI; read-out: pGI50 (converted),148 nM
same,CC50,LOX IMVI; read-out: pLC50 (converted),1450 nM
same,TGI,LOX IMVI; read-out: pTGI,398 nM
same,GI50,"SNB-75; SNB-75, read-out: pGI50 (converted)",692 nM
same,CC50,"SNB-75; SNB-75, read-out: pLC50 (converted)",4470 nM
same,TGI,"SNB-75; SNB-75, read-out: pTGI",2000 nM
same,GI50,"SF-539; SF-539, read-out: pGI50 (converted)",646 nM
same,CC50,"SF-539; SF-539, read-out: pLC50 (converted)",4470 nM
same,TGI,"SF-539; SF-539, read-out: pTGI",1950 nM
same,GI50,"SF-295; SF-295, read-out: pGI50 (converted)",398 nM
same,CC50,"SF-295; SF-295, read-out: pLC50 (converted)",4370 nM
same,TGI,"SF-295; SF-295, read-out: pTGI",1580 nM
same,GI50,"SF-268; SF-268, read-out: pGI50 (converted)",676 nM
same,CC50,"SF-268; SF-268, read-out: pLC50 (converted)",6030 nM
same,TGI,"SF-268; SF-268, read-out: pTGI",2190 nM
same,GI50,"SW-620; SW-620, read-out: pGI50 (converted)",105 nM
same,TGI,"SW-620; SW-620, read-out: pTGI",372 nM
same,GI50,"KM12; KM12, read-out: pGI50 (converted)",372 nM
same,CC50,"KM12; KM12, read-out: pLC50 (converted)",5130 nM
same,TGI,"KM12; KM12, read-out: pTGI",1480 nM
same,GI50,"HCC 2998; HCC 2998, read-out: pGI50 (converted)",162 nM
same,CC50,"HCC 2998; HCC 2998, read-out: pLC50 (converted)",813 nM
same,TGI,"HCC 2998; HCC 2998, read-out: pTGI",363 nM
same,GI50,"COLO 205; COLO 205, read-out: pGI50 (converted)",141 nM
same,CC50,"COLO 205; COLO 205, read-out: pLC50 (converted)",851 nM
same,TGI,"COLO 205; COLO 205, read-out: pTGI",347 nM
same,GI50,NCI-H322M; read-out: pGI50 (converted),1020 nM
same,CC50,NCI-H322M; read-out: pLC50 (converted),5500 nM
same,TGI,NCI-H322M; read-out: pTGI,2400 nM
same,GI50,"NCI-H23; NCI-H23, read-out: pGI50 (converted)",398 nM
same,CC50,"NCI-H23; NCI-H23, read-out: pLC50 (converted)",6610 nM
same,TGI,"NCI-H23; NCI-H23, read-out: pTGI",1700 nM
same,GI50,EKVX; read-out: pGI50 (converted),427 nM
same,CC50,EKVX; read-out: pLC50 (converted),4680 nM
same,TGI,EKVX; read-out: pTGI,1860 nM
same,GI50,SR; read-out: pGI50 (converted),3800 nM
same,CC50,SR; read-out: pLC50 (converted),> 100000 nM
same,TGI,SR; read-out: pTGI,> 100000 nM
same,GI50,"MOLT-4; MOLT-4, read-out: pGI50 (converted)",70.8 nM
same,CC50,"MOLT-4; MOLT-4, read-out: pLC50 (converted)",> 100000 nM
same,TGI,"MOLT-4; MOLT-4, read-out: pTGI",8710 nM
same,IC50,Vero,4830 nM
same,GI50,"BT-549; BT-549, read-out: pGI50 (converted)",1290 nM
same,CC50,"BT-549; BT-549, read-out: pLC50 (converted)",5250 nM
same,TGI,"BT-549; BT-549, read-out: pTGI",2630 nM
same,GI50,T47D; read-out: pGI50 (converted),214 nM
same,TGI,T47D; read-out: pTGI,603 nM
same,GI50,"MDA-MB-468; MDA-MB-468, read-out: pGI50 (converted)",135 nM
same,CC50,"MDA-MB-468; MDA-MB-468, read-out: pLC50 (converted)",891 nM
same,TGI,"MDA-MB-468; MDA-MB-468, read-out: pTGI",347 nM
same,GI50,NCI/ADR-RES; read-out: pGI50 (converted),617 nM
same,TGI,NCI/ADR-RES; read-out: pTGI,2450 nM
same,GI50,"MCF7; MCF7, read-out: pGI50 (converted)",126 nM
same,CC50,"MCF7; MCF7, read-out: pLC50 (converted)",912 nM
same,TGI,"MCF7; MCF7, read-out: pTGI",339 nM
same,GI50,"DU-145; DU-145, read-out: pGI50 (converted)",398 nM
same,CC50,"DU-145; DU-145, read-out: pLC50 (converted)",4170 nM
same,TGI,"DU-145; DU-145, read-out: pTGI",1480 nM
same,GI50,"PC-3; PC-3, read-out: pGI50 (converted)",195 nM
same,CC50,"PC-3; PC-3, read-out: pLC50 (converted)",3240 nM
same,TGI,"PC-3; PC-3, read-out: pTGI",631 nM
same,GI50,"UO-31; UO-31, read-out: pGI50 (converted)",145 nM
same,CC50,"UO-31; UO-31, read-out: pLC50 (converted)",3020 nM
same,TGI,"UO-31; UO-31, read-out: pTGI",832 nM
same,GI50,SN12C; read-out: pGI50 (converted),204 nM
same,CC50,SN12C; read-out: pLC50 (converted),6760 nM
same,TGI,SN12C; read-out: pTGI,1410 nM
same,GI50,"RXF 393; RXF 393, read-out: pGI50 (converted)",174 nM
same,CC50,"RXF 393; RXF 393, read-out: pLC50 (converted)",692 nM
same,TGI,"RXF 393; RXF 393, read-out: pTGI",347 nM
same,GI50,"786-0; 786-0, read-out: pGI50 (converted)",457 nM
same,CC50,"786-0; 786-0, read-out: pLC50 (converted)",5500 nM
same,TGI,"786-0; 786-0, read-out: pTGI",1700 nM
same,MTD,in vivo,160 mg/kg
